# Measured values published in patent US20240255509A1, “COMPOSITIONS AND METHODS RELATED TO K180 DIMETHYLATED H1.0 PROTEIN” (Aelan Cell Technologies, Inc., priority 2016, published 2024).
# Key:
# [1] = system: H1.0K180me2; experiment: Western blot for H1.0K180me2 in SR hADSCs after bleomycin or temozolomide; format: cell-based, human; settings: SR hADSCs treated for 2 hours, 50 μg/ml
# Excerpt: Material for western blot analysis (cultured cells or tissue) was lysed in ice-cold RIPA lysis buffer (Thermo Scientific 89900) and sonicated using a Covaris S2 sonicator (10% duty cycle, Intensity 5, Bursts per minute 100, 120 seconds). Total protein concentration in each sample was quantified using Quick Start Bradford 1× Dye Reagent (BioRad, 5000205) following manufacturer's protocol. Samples were then mixed with NUPAGE LDS sample loading buffer (ThermoFisher, NP0007) and NUPAGE sample reducing buffer (ThermoFisher, NP0004), and heat denatured at 70° C. for 10 minutes. Proteins were separated on 4-12% precast polyacrylamide gels (ThermoFisher, NP0321) by electrophoresis and transferred to 0.45 μm nitrocellulose membrane. The membrane was blocked with 5% non-fat milk in PBS-T for 30 minutes at RT then immunoblotted with the above primary antibodies at 4° C. overnight. Proteins were detected with HRP secondary antibodies listed above for 1 hour at RT followed by ECL Western Blotting Substrate (ThermoFisher, 32106) using manufacturer's instructions. All washes between steps were with PBS-T. Membranes were imaged with Omega LUM-C imaging system (Gel Company). […]
# SR hADSCs were treated for 2 hours with bleomycin or temozolomide, a compound that triggers base excision repair pathways. Cells were then lysed and analyzed be western blot for H1.0K180me2, γH2A.X and β-Actin.
# [2] = system: histone H1.0 mRNA; experiment: RT-PCR analysis of histone H1.0 mRNA expression in hADSCs after bleomycin; format: cell-based, human
# Procedure: (§1) For replicative senescence, hADSCs were grown in culture until reaching replicative exhaustion (PD 41-46). For acute DNA damage conditions, SR hADSCs (PD 4-10) were treated with 50 μg/ml bleomycin sulfate (Cayman Chemical, 13877) in growth media for 2 hours. For genotoxic stress-induced senescence, SR hADSCs (PD 4-10) were treated with 50 μg/ml bleomycin sulfate (Cayman Chemical, 13877) in growth media for 2 hours then washed with PBS and given fresh growth media without bleomycin. Cells were then grown for 3 days before collection.
# RT-PCR analysis of histone H1.0 mRNA expression was performed on total RNA derived from self-replicating hADSCs, hADSCs treated with bleomycin for 2 hours (acute DNA damage) and hADSCs treated with bleomycin and allowed to senesce for 3 days (genotoxic stress-induced senescence). H1.0 mRNA expression increases over 2-fold upon acute DNA damage, and remains elevated (1.5-fold over SR) upon genotoxic stress induced senescence.
# [3] = system: secreted H1.0K180me2; experiment: Slot blot of conditioned medium of hADSCs after bleomycin (secretion); format: cell-based, human
# Procedure: 0.5 μl of serum sample or known amounts of synthesized peptide were diluted in 200 μl TBS. Samples were then heat denatured at 70° C. for 10 minutes before being transferred to nitrocellulose membrane using a vacuum manifold slot blot apparatus (BioRad, 1706542). The membrane was blocked with 5% non-fat milk in PBS-T for 30 minutes at RT then immunoblotted with the above primary antibodies at 4° C. overnight. Proteins were detected with HRP secondary antibodies listed above for 1 hour at RT followed by ECL Western Blotting Substrate (ThermoFisher, 32106) using manufacturer's instructions. All washes between steps were with PBS-T. Membranes were imaged with Omega LUM-C imaging system (Gel Company). Slot blot bands for each sample were then quantified using ImageJ.
# This signifies secretion out of the cells. An increase in DNA fragmentation factor (DFFB/DFF40/CAD) secretion upon GSI-SEN was seen, in a similar manner to H1.0K180me2 starting 48 hours after treatment (FIG. 7B).
# SR hADSCs, hADSCs treated with bleomycin for 2 hours (acute DNA damage) and hADSCs treated with bleomycin and allowed to senesce for 3 days (genotoxic stress induced senescence) were lysed and fractionated into soluble and chromatin bound fractions. These fractions were then subjected to LC-MS/MS analysis. Peptide expression levels were taken as the total area under the LC-MS/MS relative intensity curve, and individual peptides were unambiguously assigned to proteins using Pinpoint software, version 1.4 (Thermo Scientific). The areas of all peptides assigned to an individual protein were summed to yield protein expression levels, which were normalized against the total protein library size for each sample. For each cellular fraction, H1.0 peptide abundance is represented as a percentage of total H1.0 peptides observed in each condition. Normalized absolute values of H1.0 peptide levels in each fraction were also shown. […] Culture media from SR hADSCs treated with bleomycin was collected for slot blot analysis with α-H1.0 and α-H1.0K180me2 antibodies to assess secretion of H1.0 to the extracellular matrix (ECM). The experiment was carried out according to methods described in Example 1.
# [4] = system: Chromatin bound H1.0; experiment: LC-MS/MS of soluble and chromatin bound fractions of hADSCs after bleomycin; format: cell-based, human
# Procedure: as §1
# SR hADSCs, hADSCs treated with bleomycin for 2 hours (acute DNA damage) and hADSCs treated with bleomycin and allowed to senesce for 3 days (genotoxic stress induced senescence) were lysed and fractionated into soluble and chromatin bound fractions. These fractions were then subjected to LC-MS/MS analysis. Peptide expression levels were taken as the total area under the LC-MS/MS relative intensity curve, and individual peptides were unambiguously assigned to proteins using Pinpoint software, version 1.4 (Thermo Scientific). The areas of all peptides assigned to an individual protein were summed to yield protein expression levels, which were normalized against the total protein library size for each sample. For each cellular fraction, H1.0 peptide abundance is represented as a percentage of total H1.0 peptides observed in each condition. […]
# [5] = system: H1.0K180me2; experiment: H1.0K180me2 on chromatin (western blot) and localization in hADSCs after bleomycin; format: cell-based, human
# Procedure: as §1
# (§2) Material for western blot analysis (cultured cells or tissue) was lysed in ice-cold RIPA lysis buffer (Thermo Scientific 89900) and sonicated using a Covaris S2 sonicator (10% duty cycle, Intensity 5, Bursts per minute 100, 120 seconds). Total protein concentration in each sample was quantified using Quick Start Bradford 1× Dye Reagent (BioRad, 5000205) following manufacturer's protocol. Samples were then mixed with NUPAGE LDS sample loading buffer (ThermoFisher, NP0007) and NUPAGE sample reducing buffer (ThermoFisher, NP0004), and heat denatured at 70° C. for 10 minutes. […] Proteins were detected with HRP secondary antibodies listed above for 1 hour at RT followed by ECL Western Blotting Substrate (ThermoFisher, 32106) using manufacturer's instructions. […]
# [6] = system: H1.0K180me2; experiment: Western blot for H1.0K180me2 in SR hADSCs treated with bleomycin after rapamycin or everolimus pretreatment; format: cell-based, human; settings: 500 nM, 24 hours pretreatment, then bleomycin 2 hours
# Excerpt: as §2, with “minutes. Proteins were separated on 4-12% precast polyacrylamide gels (ThermoFisher, NP0321) by electrophoresis and transferred to 0.45 μm nitrocellulose membrane.” for “minutes.”
# To test if rapamycin derivatives may block H1.0K180me2 appearance upon DNA damage, SR hADSCs were treated with bleomycin for 2 hours with or without pretreatment with rapamycin or everolimus (a derivative of rapamycin) for 24 hours. Cells were then lysed and analyzed be western blot for H1.0K180me2, γH2A.X and β-Actin, according to methods described in Example 1.
# [7] = target: T1, PARP-1 (Homo sapiens, UniProt P09874); experiment: Western blot of PARP-1 inhibitor activity in whole cell lysates (poly-(ADP)-ribose levels); format: cell-based; settings: 1 μM for 24 hours
# T1 construct: endogenous in cells; host or cells: hADSCs (inferred)
# Excerpt: as §2, with “minutes. Proteins were separated on 4-12% precast polyacrylamide gels (ThermoFisher, NP0321) by electrophoresis and transferred to 0.45 μm nitrocellulose membrane.” for “minutes.”
# (§3) To further assess if H1.0K180 methylation is dependent on the DNA damage repair pathway protein PARP-1 activity, western blot analysis was performed according to methods described in Example 1, to examine chromatin-bound H1.0K180me2 and γH2A.X upon treatment with bleomycin. […] Thus it was determined that H1.0K180 methylation is independent of DNA damage repair pathway protein PARP-1 activity
# [8] = system: chromatin-bound H1.0K180me2 and γH2A.X; experiment: Western blot of chromatin-bound H1.0K180me2 and γH2A.X upon bleomycin with PARP-1 inhibition; format: cell-based, human; settings: 1 μM for 24 hours, bleomycin treatment
# Excerpt: as §2, with “minutes. Proteins were separated on 4-12% precast polyacrylamide gels (ThermoFisher, NP0321) by electrophoresis and transferred to 0.45 μm nitrocellulose membrane.” for “minutes.”
# as §3
# [9] = acute DNA damage: bleomycin for 2 hours
# [10] = genotoxic stress induced senescence: bleomycin, then 3 days
# T1 sequence (P09874 whole entry): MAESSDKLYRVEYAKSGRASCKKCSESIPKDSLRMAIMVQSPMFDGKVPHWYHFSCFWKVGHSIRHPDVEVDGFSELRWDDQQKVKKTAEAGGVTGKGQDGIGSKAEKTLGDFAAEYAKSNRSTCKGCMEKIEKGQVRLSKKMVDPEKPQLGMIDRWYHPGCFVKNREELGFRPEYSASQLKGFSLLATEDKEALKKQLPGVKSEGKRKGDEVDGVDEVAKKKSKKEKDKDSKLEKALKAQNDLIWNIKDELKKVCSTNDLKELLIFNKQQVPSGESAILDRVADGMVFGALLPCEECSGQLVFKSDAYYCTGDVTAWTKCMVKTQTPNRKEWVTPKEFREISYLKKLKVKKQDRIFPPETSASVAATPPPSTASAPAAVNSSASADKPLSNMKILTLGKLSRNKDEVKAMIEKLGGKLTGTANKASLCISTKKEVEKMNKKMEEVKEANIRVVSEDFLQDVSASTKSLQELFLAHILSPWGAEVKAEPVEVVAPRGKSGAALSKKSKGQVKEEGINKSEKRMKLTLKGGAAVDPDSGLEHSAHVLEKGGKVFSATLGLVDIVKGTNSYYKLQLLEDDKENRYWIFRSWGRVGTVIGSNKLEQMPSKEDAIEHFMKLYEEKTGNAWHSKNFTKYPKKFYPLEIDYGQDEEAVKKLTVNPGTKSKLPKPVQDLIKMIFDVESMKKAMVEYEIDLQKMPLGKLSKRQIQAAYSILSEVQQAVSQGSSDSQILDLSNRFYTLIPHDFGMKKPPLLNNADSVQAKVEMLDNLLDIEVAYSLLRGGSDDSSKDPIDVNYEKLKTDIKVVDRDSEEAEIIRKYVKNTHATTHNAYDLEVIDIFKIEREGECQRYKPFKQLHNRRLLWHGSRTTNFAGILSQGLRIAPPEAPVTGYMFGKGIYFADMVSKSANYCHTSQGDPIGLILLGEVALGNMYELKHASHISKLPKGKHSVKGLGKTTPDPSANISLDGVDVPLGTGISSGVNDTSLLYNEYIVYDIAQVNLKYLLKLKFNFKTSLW
molecule,measurement,setting,value
bleomycin sulfate,induction of H1.0K180me2 methylation,[1],capable of inducing H1.0K180me2 methylation
same,H1.0 mRNA expression increase over SR,[2]; [9],over 2 fold
same,H1.0 mRNA expression increase over SR,[2]; [10],1.5 fold
same,DNA fragmentation factor (DFFB/DFF40/CAD) secretion,"[3]; GSI-SEN, starting 48 hours after treatment",increase
same,secretion of H1.0K180me2 and DFFB upon onset of acute DNA damage (ADD),[3]; acute DNA damage,None of the protein is secreted in measurable quantities
same,secreted H1.0K180me2 in cell culture media,[3]; after 24 hours of bleomycin treatment,readily detected
same,time of maximal H1.0K180me2 secretion into conditioned medium,[3]; time course after bleomycin,≤ 48 h
same,"Chromatin bound H1.0, % of total H1.0 peptides",[4]; [9],~60%
same,"Chromatin bound H1.0, % of total H1.0 peptides",[4]; [10],~30%
same,localization of H1.0K180me2,[5]; SR hADSCs treated with bleomycin,localized to the cytoplasm
same,methylation of H1.0K180 on chromatin,"[5]; bleomycin for 2 hours, chromatin bound fraction, western blot",methylation of H1.0K180 on the chromatin
"CO[C@H]1C[C@@H]2CC[C@@H](C)[C@@](O)(O2)C(=O)C(=O)N2CCCC[C@H]2C(=O)O[C@H]([C@H](C)C[C@@H]2CC[C@@H](OCCO)[C@H](OC)C2)CC(=O)[C@H](C)/C=C(\C)[C@@H](O)[C@@H](OC)C(=O)[C@H](C)C[C@H](C)/C=C/C=C/C=C/1C [everolimus, Everolimus]",appearance of H1.0K180me2 upon bleomycin treatment,[6],reduced the appearance of H1.0K180me2
CN(C)Cc1ccc(-c2nc3cccc4c3n2CCNC4=O)cc1 [AG14361],poly-(ADP)-ribose (PAR) levels increased upon bleomycin treatment,[7],abolished
same,accumulation of chromatin-bound H1.0K180me2,[8],increased accumulation
same,accumulation of chromatin-bound γH2A.X,[8],increased accumulation
